Experiments:
Format in all cases: biochemical
[1] = molecular target: human JAK1 (a.a. 837-1142); experiment: In vitro JAK kinase assay (HTRF, phosphorylation of a biotinylated peptide), JAK1; settings: measured at 1 mM ATP; JAK2 IC50 / JAK1 IC50
Method in brief: (§1)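 Phosphorylation of a biotinylated peptide by purified His-tagged JAK catalytic domains (insect-cell baculovirus expression) ran 1 hr at room temperature. After stopping with EDTA, Eu-Py20 and SA-APC were bound for 40 minutes and HTRF measured.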

[2] = molecular target: human Jak2 (a.a. 828-1132) (Homo sapiens (Human), UniProt O60674); experiment: In vitro JAK kinase assay (HTRF, phosphorylation of a biotinylated peptide), JAK2; settings: measured at 1 mM ATP
Sequence of human Jak2 (a.a. 828-1132) (O60674 828-1132): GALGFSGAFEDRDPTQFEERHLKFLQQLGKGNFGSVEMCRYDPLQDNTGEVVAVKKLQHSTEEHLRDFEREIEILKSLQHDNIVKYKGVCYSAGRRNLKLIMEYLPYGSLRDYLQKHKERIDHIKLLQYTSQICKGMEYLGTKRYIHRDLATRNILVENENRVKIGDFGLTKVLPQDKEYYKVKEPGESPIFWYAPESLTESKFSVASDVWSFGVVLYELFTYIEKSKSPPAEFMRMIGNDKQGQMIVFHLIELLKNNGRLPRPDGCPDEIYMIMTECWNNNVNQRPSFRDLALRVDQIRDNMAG
Experimental: Compounds herein were tested for inhibitory activity of JAK targets according to the following in vitro assay described in Park et al., Analytical Biochemistry 1999, 269, 94-104. The catalytic domains of human JAK1 (a.a. 837-1142), Jak2 (a.a. 828-1132) and Jak3 (a.a. 781-1124) with an N-terminal His tag were expressed using baculovirus in insect cells and purified. The catalytic activity of JAK1, JAK2 or JAK3 was assayed by measuring the phosphorylation of a biotinylated peptide. The phosphorylated peptide was detected by homogenous time resolved fluorescence (HTRF). […] Reactions were carried out at room temperature for 1 hr and then stopped with 20 μL 45 mM EDTA, 300 nM SA-APC, 6 nM Eu-Py20 in assay buffer (Perkin Elmer, Boston, Mass.). Binding to the Europium labeled antibody took place for 40 minutes and HTRF signal was measured on a Fusion plate reader (Perkin Elmer, Boston, Mass.).

[3] = molecular target: human JAK1 (a.a. 837-1142) (Homo sapiens, UniProt P23458); experiment: In vitro JAK kinase assay (HTRF, phosphorylation of a biotinylated peptide), JAK1; settings: measured at 1 mM ATP
Method in brief: as §1

SMILES	IC50 Ratio JAK2/JAK1 [1]	IC50 [2] [nM]	IC50 [3] [nM]
CC1CC(N2CC(CC#N)(n3cc(-c4ncnc5[nH]ccc45)cn3)C2)CCN1C(=O)c1cccc(F)c1 (single isomer, unassigned) [Example 149, {1-[1-(3-fluorobenzoyl)-2-methylpiperidin-4-yl]-3-[4-(7H-pyrrolo[2,3-d]pyrimidin-4-yl)-1H-pyrazol-1-yl]azetidin-3-yl}acetonitrile]	5.0	10 to 50	–
CC1CC(N2CC(CC#N)(n3cc(-c4ncnc5[nH]ccc45)cn3)C2)CCN1C(=O)c1cccc(F)c1 (single isomer, unassigned) [Example 150, {1-[1-(3-fluorobenzoyl)-2-methylpiperidin-4-yl]-3-[4-(7H-pyrrolo[2,3-d]pyrimidin-4-yl)-1H-pyrazol-1-yl]azetidin-3-yl}acetonitrile]	7.0	≤ 10	–
CC1CC(N2CC(CC#N)(n3cc(-c4ncnc5[nH]ccc45)cn3)C2)CCN1Cc1ccc(N(C)C)c(C#N)c1F (single isomer, unassigned) [Example 242, 3-[(4-{3-(cyanomethyl)-3-[4-(7H-pyrrolo[2,3-d]pyrimidin-4-yl)-1H-pyrazol-1-yl]azetidin-1-yl}-2-methylpiperidin-1-yl)methyl]-6-(dimethylamino)-2-fluorobenzonitrile]	8.3	10 to 50	≤ 5
CC1CC(N2CC(CC#N)(n3cc(-c4ncnc5[nH]ccc45)cn3)C2)CCN1Cc1ccc(N(C)C)c(C#N)c1F (single isomer, unassigned) [Example 243, 3-[(4-{3-(cyanomethyl)-3-[4-(7H-pyrrolo[2,3-d]pyrimidin-4-yl)-1H-pyrazol-1-yl]azetidin-1-yl}-2-methylpiperidin-1-yl)methyl]-6-(dimethylamino)-2-fluorobenzonitrile]	6.4	> 100	20 to 30
N#CCC1(n2cc(-c3ncnc4[nH]ccc34)cn2)CN(C2CCN(C(=O)c3ccc(-c4cccc5cccnc45)c(F)c3)CC2)C1 [Example 132, {1-[1-(3-fluoro-4-quinolin-8-ylbenzoyl)piperidin-4-yl]-3-[4-(7H-pyrrolo[2,3-d]pyrimidin-4-yl)-1H-pyrazol-1-yl]azetidin-3-yl} acetonitrile]	5.8	–	≤ 5
N#CCC1(n2cc(-c3ncnc4[nH]ccc34)cn2)CN(C2CCN(C(=O)c3cc(CO)nc(C(F)(F)F)n3)CC2)C1 [Example 381, {1-(1-{[6-(hydroxymethyl)-2-(trifluoromethyl)pyrimidin-4-yl]carbonyl}piperidin-4-yl)-3-[4-(7H-pyrrolo[2,3-d]pyrimidin-4-yl)-1H-pyrazol-1-yl]azetidin-3-yl}acetonitrile]	20	–	–
CCCOC(=O)N1CCC(N2CC(CC#N)(n3cc(-c4ncnc5[nH]ccc45)cn3)C2)CC1 [Example 386, Propyl 4-{3-(cyanomethyl)-3-[4-(7H-pyrrolo[2,3-d]pyrimidin-4-yl)-1H-pyrazol-1-yl]azetidin-1-yl}piperidine-1-carboxylate]	7.7	–	–
N#CCC1(n2cc(-c3ncnc4[nH]ccc34)cn2)CN(C2CCN(C(=O)OCC3CCC3)CC2)C1 [Example 387, Cyclobutylmethyl 4-{3-(cyanomethyl)-3-[4-(7H-pyrrolo[2,3-d]pyrimidin-4-yl)-1H-pyrazol-1-yl]azetidin-1-yl}piperidine-1-carboxylate]	9.7	–	–
CCOC(=O)N1CCC(N2CC(CC#N)(n3cc(-c4ncnc5[nH]ccc45)cn3)C2)CC1 [Example 388, ethyl 4-{3-(cyanomethyl)-3-[4-(7H-pyrrolo[2,3-d]pyrimidin-4-yl)-1H-pyrazol-1-yl]azetidin-1-yl}piperidine-1-carboxylate]	7.6	–	–
N#CCC1(n2cc(-c3ncnc4[nH]ccc34)cn2)CN(C2CCN(C(=O)OCc3ccccc3)CC2)C1 [Example 389, benzyl 4-{3-(cyanomethyl)-3-[4-(7H-pyrrolo[2,3-d]pyrimidin-4-yl)-1H-pyrazol-1-yl]azetidin-1-yl}piperidine-1-carboxylate]	6.5	–	–
CC(C)COC(=O)N1CCC(N2CC(CC#N)(n3cc(-c4ncnc5[nH]ccc45)cn3)C2)CC1 [Example 390, isobutyl 4-{3-(cyanomethyl)-3-[4-(7H-pyrrolo[2,3-d]pyrimidin-4-yl)-1H-pyrazol-1-yl]azetidin-1-yl}piperidine-1-carboxylate]	8.3	–	–
CC1(COC(=O)N2CCC(N3CC(CC#N)(n4cc(-c5ncnc6[nH]ccc56)cn4)C3)CC2)CC1 [Example 392, (1-methylcyclopropyl)methyl 4-{3-(cyanomethyl)-3-[4-(7H-pyrrolo[2,3-d]pyrimidin-4-yl)-1H-pyrazol-1-yl]azetidin-1-yl}piperidine-1-carboxylate]	5.6	–	–
N#CCC1(n2cc(-c3ncnc4[nH]ccc34)cn2)CN(C2CCN(C(=O)OCc3ccc(F)cc3F)CC2)C1 [Example 393, 2,4-difluorobenzyl 4-{3-(cyanomethyl)-3-[4-(7H-pyrrolo[2,3-d]pyrimidin-4-yl)-1H-pyrazol-1-yl]azetidin-1-yl}piperidine-1-carboxylate]	7.1	–	–
